Each compound was assayed against T1, CHK1 kinase (Homo sapiens, UniProt O14757) (assay: Flashplate method (CHK1), measurement of the CHK1 kinase activity). Conditions: class symbols; 'Affinity to receptors'.
T1 construct: glutathione S-transferase (GST); made in house; host or cells: Sf21 insect cells (S. frugiperda), baculovirus
T1 sequence (O14757 1-476): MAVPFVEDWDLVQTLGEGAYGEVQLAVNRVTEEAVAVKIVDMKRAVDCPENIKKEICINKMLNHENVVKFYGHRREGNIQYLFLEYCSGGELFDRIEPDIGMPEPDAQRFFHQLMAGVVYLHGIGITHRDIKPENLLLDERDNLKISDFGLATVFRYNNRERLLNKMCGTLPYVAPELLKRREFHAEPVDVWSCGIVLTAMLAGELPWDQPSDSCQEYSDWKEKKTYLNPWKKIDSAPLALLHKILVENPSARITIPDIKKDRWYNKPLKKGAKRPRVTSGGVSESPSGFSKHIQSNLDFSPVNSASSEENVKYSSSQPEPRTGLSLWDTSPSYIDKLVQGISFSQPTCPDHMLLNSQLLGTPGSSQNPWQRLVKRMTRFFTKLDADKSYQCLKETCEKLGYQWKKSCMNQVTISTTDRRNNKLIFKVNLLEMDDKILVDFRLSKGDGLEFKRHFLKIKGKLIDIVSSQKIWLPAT
Type: biochemical
Summary of the method: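 GST-tagged CHK1 expressed in Sf21 insect cells, incubated at 30 °C with biotinylated CHKtide (0.15 μg per well) and γ33P-ATP in pH 7.5 buffer (EGTA, Mg acetate, mercaptoethanol, 0.1% BSA). Stopped with EDTA, captured on streptavidin Flashplates and counted by scintillation. IC50 set against uninhibited reaction and 0.1 μM staurosporine as zero.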

Row | IC50 | Compound
1 | < 1000 nM | O=c1c(NCc2cccc(O)c2)c(Nc2cc(Cl)c3[nH]cnc3c2)c1=O [Compound A118, 3-(7-chloro-1H-benzimidazol-5-ylamino)-4-(3-hydroxybenzylamino)cyclobut-3-ene-1,2-dione]
2 | > 1000 nM | O=c1c(NCc2cccc(O)c2)c(Nc2cc3nc[nH]c3cc2Cl)c1=O [Compound A12, 3-(1H-benzimidazol-6-chloro-5-ylamino)-4-(3-hydroxybenzylamino)cyclobut-3-ene-1,2-dione]
3 | > 1000 nM | Cc1ccc(CC(O)c2cccc(CNc3c(Nc4ccc5[nH]cnc5c4)c(=O)c3=O)c2)cc1 (centres unmarked) [Compound A161, 3-(1H-benzimidazol-5-ylamino)-4-[3-(1-hydroxy-2-p-tolylethyl)benzylamino]cyclobut-3-ene-1,2-dione]
4 | > 1000 nM | Cc1cc(Nc2c(NCc3cccc(O)c3)c(=O)c2=O)cn2ccnc12 [Compound A55, 3-(3-hydroxybenzylamino)-4-(8-methyl-imidazo[1,2-a]pyridin-6-ylamino)cyclobut-3-ene-1,2-dione]
5 | > 1000 nM | CS(=O)(=O)Nc1cccc(CNc2c(Nc3ccc4[nH]cnc4c3)c(=O)c2=O)c1 [Compound A77, 3-(1H-benzimidazol-5-ylamino)-4-(3-methyl-sulfonylaminobenzylamino)cyclobut-3-ene-1,2-dione]
6 | > 1000 nM | O=c1c(NCc2cc(F)c(F)c(O)c2F)c(Nc2ccc3[nH]cnc3c2)c1=O [Compound A78, 3-(1H-benzimidazol-5-ylamino)-4-(2,4,5-trifluoro-3-hydroxybenzylamino)cyclobut-3-ene-1,2-dione]
7 | > 1000 nM | CCN(CC)CCn1cnc2ccc(Nc3c(N[C@H](C)c4cccc(O)c4)c(=O)c3=O)cc21 [Compound A66, 3-[3-(2-diethylaminoethyl)-3H-benzimidazol-5-ylamino]-4-[(R)-1-(3-hydroxyphenyl)ethyl-amino]cyclobut-3-ene-1,2-dione]
8 | > 1000 nM | O=c1c(NCc2cccc(OS(=O)(=O)C(F)(F)F)c2)c(Nc2ccc3[nH]cnc3c2)c1=O [Compound A133, 3-(1H-benzimidazol-5-ylamino)-4-(3-trifluoro-methylsulfonyloxybenzylamino)cyclobut-3-ene-1,2-dione]
9 | > 1000 nM | O=C(O)c1cccc(CNc2c(Nc3ccc4[nH]cnc4c3)c(=O)c2=O)c1 [Compound A130, 3-(1H-benzimidazol-5-ylamino)-4-(3-carboxy-benzylamino)cyclobut-3-ene-1,2-dione]
10 | > 1000 nM | O=c1[nH]c2ccc(Nc3c(NCc4cccc(O)c4)c(=O)c3=O)cc2[nH]1 [Compound A30, 4-(2-oxo-2,3-dihydro-1H-benzimidazol-5-yl-amino)-3-(3-hydroxybenzylamino)cyclobut-3-ene-1,2-dione]
11 | > 1000 nM | Cc1nc2cc(Nc3c(NCc4cccc(O)c4)c(=O)c3=O)ccc2[nH]1 [Compound A89, 3-(3-hydroxybenzylamino)-4-(2-methyl-1H-benzimidazol-5-ylamino)cyclobut-3-ene-1,2-dione]
12 | > 1000 nM | COc1cccc([C@H](C)Nc2c(Nc3ccc4[nH]cnc4c3)c(=O)c2=O)c1 [Compound A83, 3-(1H-benzimidazol-5-ylamino)-4-[(S)-1-(3-methoxyphenyl)ethylamino]cyclobut-3-ene-1,2-dione]
13 | > 1000 nM | O=c1c(NCc2ccc3c(c2)OCO3)c(Nc2ccc3[nH]cnc3c2)c1=O [Compound A123, 3-[(benzo[1,3]dioxol-5-ylmethyl)amino]-4-(1H-benzimidazol-5-ylamino)cyclobut-3-ene-1,2-dione]
14 | < 1000 nM | COCCn1cnc2ccc(Nc3c(N[C@H](C)c4cccc(O)c4)c(=O)c3=O)cc21 [Compound A68, 3-[3-(2-methoxyethyl)-3H-benzimidazol-5-ylamino]-4-[(R)-1-(3-hydroxyphenyl)ethyl-amino]cyclobut-3-ene-1,2-dione]
15 | > 1000 nM | COCCn1cnc2ccc(Nc3c(NCc4cccc(-c5nnn[nH]5)c4)c(=O)c3=O)cc21 [Compound A69, 3-[3-(2-methoxyethyl)-3H-benzimidazol-5-ylamino]-4-[3-(1H-tetrazol-5-yl)benzylamino]-cyclobut-3-ene-1,2-dione]
16 | > 1000 nM | COCCOc1cccc(CNc2c(Nc3ccc4[nH]cnc4c3)c(=O)c2=O)c1 [Compound A106, 3-(1H-benzimidazol-5-ylamino)-4-[3-(2-methoxyethoxy)benzylamino]cyclobut-3-ene-1,2-dione]

Row | IC50 | Compound
17 | > 1000 nM | CCN(CC)c1c(Nc2c(NCc3cccc(O)c3)c(=O)c2=O)cc(C(F)(F)F)c2[nH]cnc12 [Compound A124, 3-(4-diethylamino-7-trifluoromethyl-1H-benzimidazol-5-ylamino)-4-(3-hydroxy-benzylamino)cyclobut-3-ene-1,2-dione]
18 | > 1000 nM | CC(=O)c1cccc(CNc2c(Nc3ccc4[nH]cnc4c3)c(=O)c2=O)c1 [Compound A127, 3-(1H-benzimidazol-5-ylamino)-4-(3-acetyl-benzylamino)cyclobut-3-ene-1,2-dione]
19 | > 1000 nM | 3-(1H-benzimidazol-5-ylamino)-4-[(S)-1-(3-hydroxyphenyl)ethylamino]cyclobut-3-ene-1,2-dione [Compound A4]
20 | < 100 nM | C[C@@H](Nc1c(Nc2ccc3[nH]cnc3c2)c(=O)c1=O)c1cccc(O)c1 [Compound A3, 3-(1H-benzimidazol-5-ylamino)-4-[(R)-1-(3-hydroxyphenyl)ethylamino]cyclobut-3-ene-1,2-dione]
21 | > 1000 nM | Cc1nc2cc(Nc3c(NCc4cccc(O)c4)c(=O)c3=O)ccc2s1 [Compound A98, 3-(3-hydroxybenzylamino)-4-(2-methylbenzo-thiazol-5-ylamino)cyclobut-3-ene-1,2-dione]
22 | > 1000 nM | O=c1c(NCc2ccccc2OC2CCNCC2)c(Nc2ccc3[nH]cnc3c2)c1=O [Compound A148, 3-(1H-benzimidazol-5-ylamino)-4-[2-(piperidin-4-yloxy)benzylamino]cyclobut-3-ene-1,2-dione]
23 | < 1000 nM | CN(Cc1cccc(O)c1)c1c(Nc2ccc3[nH]cnc3c2)c(=O)c1=O [Compound A38, 3-(1H-benzimidazol-5-ylamino)-4-[(3-hydroxybenzyl)methylamino]cyclobut-3-ene-1,2-dione]
24 | > 1000 nM | CC[C@H](Nc1c(Nc2ccc3[nH]cnc3c2)c(=O)c1=O)c1cccc(OC)c1 [Compound A115, 3-(1H-benzimidazol-5-ylamino)-4-[(S)-1-(3-methoxyphenyl)propylamino]cyclobut-3-ene-1,2-dione]
25 | < 1000 nM | COC(=O)CC(Nc1c(Nc2ccc3[nH]cnc3c2)c(=O)c1=O)c1cccc(O)c1 (centres unmarked) [Compound A101, methyl 3-[2-(1H-benzimidazol-5-ylamino)-3,4-dioxocyclobut-1-enylamino]-3-(3-hydroxy-phenyl)propionate]
26 | > 1000 nM | CCCCc1c(Nc2c(NCc3cccc(O)c3)c(=O)c2=O)ccc2[nH]cnc12 [Compound A111, 3-(4-butyl-1H-benzimidazol-5-ylamino)-4-(3-hydroxybenzylamino)cyclobut-3-ene-1,2-dione]
27 | > 1000 nM | CC(C)(C)NS(=O)(=O)c1cccc(CNc2c(Nc3ccc4[nH]cnc4c3)c(=O)c2=O)c1 [Compound A41, 3-(1H-benzimidazol-5-ylamino)-4-[3-(tert-butylaminosulfonyl)benzylamino]cyclobut-3-ene-1,2-dione]
28 | < 100 nM | O=c1c(NCc2cccc(O)c2)c(Nc2ccc3[nH]cnc3c2)c1=O [Compound A1, 3-(1H-benzimidazol-5-ylamino)-4-(3-hydroxybenzylamino)cyclobut-3-ene-1,2-dione]
29 | < 1000 nM | O=C(CC(Nc1c(Nc2ccc3[nH]cnc3c2)c(=O)c1=O)c1cccc(O)c1)N1CCNCC1 (centres unmarked) [Compound A112, 3-(1H-benzimidazol-5-ylamino)-4-[1-(3-hydroxyphenyl)-3-oxo-3-piperazin-1-ylpropyl-amino]cyclobut-3-ene-1,2-dione]
30 | > 1000 nM | COc1ccc(F)c(CNc2c(Nc3ccc4[nH]cnc4c3)c(=O)c2=O)c1 [Compound A85, 3-(1H-benzimidazol-5-ylamino)-4-(2-fluoro-5-methoxybenzylamino)cyclobut-3-ene-1,2-dione]
31 | > 1000 nM | O=c1c(NCc2cccc(O)c2)c(Nc2ccc3c(c2)NCC3)c1=O [Compound A42, 3-(2,3-dihydro-1 H-indol-6-ylamino)-4-(3-hydroxybenzylamino)cyclobut-3-ene-1,2-dione]
32 | > 1000 nM | O=c1c(NCc2cccc(O)c2Cl)c(Nc2ccc3[nH]cnc3c2)c1=O [Compound A86, 3-(1H-benzimidazol-5-ylamino)-4-(2-chloro-3-hydroxybenzylamino)cyclobut-3-ene-1,2-dione]

Row | Compound | IC50
33 | 3-(3-hydroxybenzylamino)-4-(5-methyl-imidazo[1,2-a]pyridin-6-ylamino)cyclobut-3-ene-1,2-dione [Compound A56] | < 1000 nM
34 | 3-[(R)-1-(3-methoxyphenyl)ethylamino]-4-(7-methylimidazo[1,2-a]pyridin-6-ylamino)-cyclobut-3-ene-1,2-dione [Compound A57] | > 1000 nM
35 | 3-[(R)-1-(3-methoxyphenyl)ethylamino]-4-(5-methylimidazo[1,2-a]pyridin-6-ylamino)-cyclobut-3-ene-1,2-dione [Compound A58] | > 1000 nM

Source: patent publication US20080234266A1, “Squaric Acid Derivatives II” (priority 2005, published 2008)
